Test systems include HCC-2998 colon; KM12 colon; COLO 205 colon; TK-10 renal; NCI-H522 lung; HOP-92 NSCLC; MOLT-4 leukemia; NCI-H226 lung; SF-539 CNS; UACC-62 melanoma.
Assay in all cases: inhibition of tumour cell growth, NCI panel, 48 h

Values joined by “and” are separate entries in the source; they are usually repeats but may differ in a detail not shown here. Equal values may be shown once.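 Where inhibition never reached the appropriate level, the endpoint shown equals the highest concentration tested. Otherwise, values were interpolated linearly from a five-concentration, 48-hour dose response in 96-well plates. At the GI50, growth is halved. TGI: total growth inhibition.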

`O=C(O)C(=O)/C=C\c1ccc(Cl)cc1`: the TGI in the assay with HCC-2998 colon, in the assay on KM12 colon, with COLO 205 colon, with TK-10 renal, with NCI-H522 lung and with HOP-92 NSCLC was over 100 µM each time. The TGI in the assay with MOLT-4 leukemia, with NCI-H226 lung, in the assay on SF-539 CNS and with UACC-62 melanoma was over 100 µM each time.

Take `O=C(NCCc1ccccc1)C(c1csc2ccccc12)N(C(=O)CCl)c1ccc(-c2cnco2)cc1` (configuration not stated): the GI50 in the assay with HCC-2998 colon was 1.69 µM; with KM12 colon, 0.291 µM; in the assay with COLO 205 colon it was 1.56 µM; in the assay with TK-10 renal, 1.75 µM; with NCI-H522 lung, 0.0134 µM; in the assay with HOP-92 NSCLC, 0.174 µM. The GI50 with MOLT-4 leukemia is 0.209 µM; with NCI-H226 lung, 1.07 µM; in the assay with SF-539 CNS, 0.126 µM; with UACC-62 melanoma, 1.3 µM. Also, the TGI in the assay on HCC-2998 colon is 3.22 µM; in the assay on KM12 colon, 0.898 µM; in the assay on COLO 205 colon it was 3.28 µM; with TK-10 renal it was 3.21 µM; in the assay on NCI-H522 lung, 0.0295 µM; in the assay on HOP-92 NSCLC, 0.443 µM. The TGI in the assay on MOLT-4 leukemia turned out to be 0.678 µM; with NCI-H226 lung, 3.43 µM; in the assay on SF-539 CNS it was 0.257 µM; with UACC-62 melanoma, 2.85 µM.

`CCOc1cccc2cccnc12`: the TGI in the assay with HCC-2998 colon, in the assay on KM12 colon, in the assay with COLO 205 colon, in the assay with TK-10 renal, in the assay with NCI-H522 lung and in the assay on HOP-92 NSCLC was over 100 µM each time. The TGI with MOLT-4 leukemia, in the assay with NCI-H226 lung, with SF-539 CNS and in the assay with UACC-62 melanoma was over 100 µM each time.

As to `N#CC1(Cc2ccccc2Cl)c2ccccc2C=CN1C(=O)c1ccccc1` (configuration not stated), the TGI with HCC-2998 colon, in the assay with KM12 colon, with COLO 205 colon, in the assay on TK-10 renal, in the assay on NCI-H522 lung and in the assay with HOP-92 NSCLC was over 100 µM throughout. Besides, the TGI in the assay with MOLT-4 leukemia, in the assay with NCI-H226 lung, in the assay with SF-539 CNS and with UACC-62 melanoma was over 100 µM each time.

`Cc1cc(C)c2nc(Nc3nc(C)c(C)c(=O)[nH]3)nc(C)c2c1`: the GI50 is 3.81 µM with HCC-2998 colon; 3.02 µM in the assay with KM12 colon; 2.51 µM in the assay on COLO 205 colon; 3.05 µM in the assay with TK-10 renal; 1.63 µM with NCI-H522 lung; 2.48 µM in the assay on HOP-92 NSCLC. In addition, the GI50 in the assay on MOLT-4 leukemia is 2.35 µM; in the assay on NCI-H226 lung it was 2.93 µM; with SF-539 CNS it was 2.54 µM; in the assay on UACC-62 melanoma it was 2.08 µM. Moreover, the TGI with HCC-2998 colon was determined as 19.6 µM; with KM12 colon it was 23.9 µM; in the assay on COLO 205 colon, 7.51 µM; in the assay with TK-10 renal, 17.9 µM; in the assay on NCI-H522 lung it was 6.33 µM; with HOP-92 NSCLC it was 9.11 µM. The TGI amounted to 9.37 µM in the assay on MOLT-4 leukemia, 15.4 µM in the assay on NCI-H226 lung, 10.3 µM with SF-539 CNS and 5.5 µM in the assay on UACC-62 melanoma.

For `O=c1cc(N2CCOCC2)oc2c(-c3ccccc3)cccc12`, the GI50 in the assay on HCC-2998 colon is 5.61 µM; in the assay on KM12 colon it was 10.6 µM; with TK-10 renal, 4.39 µM; in the assay with NCI-H522 lung it was 4.96 µM; in the assay on HOP-92 NSCLC, 3.74 µM; in the assay with MOLT-4 leukemia, 5.46 µM. Further, the GI50 is 5.57 µM with SF-539 CNS and 3.19 µM with UACC-62 melanoma. Further, the TGI with HCC-2998 colon is 46.9 µM; in the assay with KM12 colon it was 44.9 µM and 28.8 µM; in the assay on COLO 205 colon it was 36.7 µM and 30.1 µM; in the assay with TK-10 renal, 40.3 µM and > 100 µM; in the assay on NCI-H522 lung, 23.2 µM and 19.3 µM; with HOP-92 NSCLC it was > 100 µM and 78.5 µM. Moreover, the TGI in the assay on MOLT-4 leukemia is > 100 µM and 92.8 µM; in the assay with NCI-H226 lung, 50 µM and 50.6 µM; in the assay on SF-539 CNS it was 31.6 µM and 29.8 µM; in the assay with UACC-62 melanoma, 18.8 µM and 21.9 µM.

With `COc1cc(C=C2C(=O)OC(C)(C)OC2=O)cc(OC)c1OC`, the TGI with HCC-2998 colon, in the assay with KM12 colon, in the assay on COLO 205 colon, in the assay on TK-10 renal, with NCI-H522 lung and with HOP-92 NSCLC was over 100 µM each time. The TGI in the assay on MOLT-4 leukemia, in the assay on NCI-H226 lung, in the assay with SF-539 CNS and in the assay with UACC-62 melanoma was over 100 µM throughout.

On to `COc1ccc2c(c1)Cc1cc(N=[N+]([O-])c3ccc4c(c3)Cc3cc(OC)ccc3-4)ccc1-2`, for which the TGI is 27.3 µM with HCC-2998 colon; over 100 µM with KM12 colon; 28.6 µM in the assay on COLO 205 colon; over 100 µM in the assay with TK-10 renal; 30.3 µM with NCI-H522 lung; over 100 µM with HOP-92 NSCLC. For the same compound, the TGI with MOLT-4 leukemia was over 100 µM; in the assay with NCI-H226 lung, over 100 µM; in the assay with SF-539 CNS, 28.5 µM; in the assay with UACC-62 melanoma, 85.4 µM.

Regarding `CC1=NN(C(=O)CC(=O)Nc2ccccc2)C(=O)C1N=Nc1ccc(S(N)(=O)=O)cc1` (configuration not stated), the TGI in the assay with HCC-2998 colon, in the assay on KM12 colon, in the assay on COLO 205 colon, with TK-10 renal, in the assay with NCI-H522 lung and in the assay on HOP-92 NSCLC was over 100 µM in each case. Also, the TGI was over 100 µM in the assay on MOLT-4 leukemia, over 100 µM in the assay with NCI-H226 lung, over 100 µM in the assay on SF-539 CNS and 92.6 µM in the assay with UACC-62 melanoma.

Take `CCCCCc1c(C)[nH]c(/C=C2\N=C(c3ccc[nH]3)C=C2Oc2ccc(OC)cc2)c1C`: the GI50 was 0.0963 µM and 0.0369 µM in the assay on HCC-2998 colon; 0.0555 µM and 0.0314 µM with KM12 colon; 0.125 µM and 0.028 µM in the assay with COLO 205 colon; 0.335 µM and 0.0439 µM with TK-10 renal; 0.0135 µM in the assay on NCI-H522 lung; 0.145 µM and 0.0153 µM in the assay on HOP-92 NSCLC. Further, the GI50 was 0.107 µM and 0.0481 µM in the assay with MOLT-4 leukemia; 0.118 µM and 0.139 µM in the assay on NCI-H226 lung; 0.156 µM and 0.0431 µM in the assay on SF-539 CNS; 0.112 µM and 0.0271 µM in the assay on UACC-62 melanoma. The TGI is 6.44 µM and 1.91 µM in the assay with HCC-2998 colon; 0.622 µM and 0.185 µM in the assay with KM12 colon; 0.502 µM and 0.19 µM with COLO 205 colon; 1.69 µM and 0.331 µM in the assay with TK-10 renal; 0.19 µM with NCI-H522 lung; 0.575 µM and 0.101 µM in the assay on HOP-92 NSCLC. The TGI in the assay on MOLT-4 leukemia was 1.17 µM and 1.67 µM; with SF-539 CNS it was 0.551 µM and 0.212 µM; in the assay with UACC-62 melanoma, 0.272 µM and 0.0725 µM.

Source of the values: PubChem BioAssay (NCI).
